{
  "source": "paper PMC6065317",
  "about": "“Rice Defensin OsAFP1 is a New Drug Candidate against Human Pathogenic Fungi” (Scientific Reports, 2018)",
  "key": {"[1]": {"tested_on": "C. albicans CAI4 (IFM 61937)", "procedure": "(§1) Seven microbial strains were used for OsAFP1 antimicrobial activity testing. P. gingivalis ATCC 33277 cells were cultured in modified Gifu anaerobic medium (GAM) (Nissui, Tokyo, Japan) in an anaerobic jar (Mitsubishi Gas Chemical, Tokyo, Japan) in the presence of a deoxygenating regent (AnaeroPack, Mitsubishi Gas Chemical) for 48 h at 37 °C. E. coli K-12 NBRC3301, S. mutans JCM 5705, S. aureus NBRC 12732, and P. acnes JCM 6473 cells were cultured in Luria-Bertani (LB) broth, brain-heart infusion broth (Nissui), trypticase soy broth (BD Biosciences, Franklin Lakes, NJ, USA), and GAM broth (Nissui), respectively, under facultative anaerobic conditions for 4–24 h at 37 °C. C. albicans CAI4 (IFM 61937) cells were cultured in 0.5 × potato dextrose broth (PDB) supplemented with 25 μg/ml of uridine under facultative anaerobic conditions for 14 h at 30 °C. S. cerevisiae BY4742 and S288C cells were cultured in 0.5 × PDB supplemented with 30 μg/ml of uridine, histidine, and lysine and 60 μg/ml of leucine under facultative anaerobic conditions for 14 h at 27 °C. These microbial strains were purchased from the American Type Culture Collection (Manassas, VA, USA), National Institute of Technology and Evaluation (Tokyo, Japan), RIKEN BioResource Center (Tsukuba, Japan), Medical Mycology Research Center (Chiba, Japan), and GE Healthcare (Little Chalfont, UK).\nAntifungal assays to determine the MIC of OsAFP1 were performed as follows. Fungal cells (1 × 10^5 cells) were suspended in 100 μl of the appropriate medium containing 0–32 μM OsAFP1 in 96-well Costar cell culture plates. After incubation, OD650 was measured using a plate reader. […] In those cases, the cultures were plated on agar plates (0.5 × PDB), and the peptide concentration at which viable cell numbers were 1% or less than that in the control culture was considered the MIC. GraphPad Prism version 6.00 for Macintosh (GraphPad Software, La Jolla, CA, USA) was used to calculate IC50 values. Experiments were independently repeated at least three times. Detailed growth conditions for each fungus are provided in the “Microorganisms and culture conditions” section above."}, "[2]": {"tested_on": "Saccharomyces cerevisiae BY4742", "test": "Antifungal assay (growth inhibition, OD650)", "assay_type": "cell-based", "settings": "S. cerevisiae BY4742; 0.5 × PDB with supplements, 27 °C, 14 h; MIC = >99% reduction of OD650", "procedure": "as §1, with “These microbial strains were purchased from the American Type Culture Collection (Manassas, VA, USA), National Institute of Technology and Evaluation (Tokyo, Japan), RIKEN BioResource Center (Tsukuba, Japan), Medical Mycology Research Center (Chiba, Japan), and GE Healthcare (Little Chalfont, UK).” left out\n(§2) Antifungal assays to determine the MIC of OsAFP1 were performed as follows. […] After incubation, OD650 was measured using a plate reader. […]"}, "[3]": {"tested_on": "Saccharomyces cerevisiae S288C", "test": "Antifungal assay (growth inhibition, OD650)", "assay_type": "cell-based", "settings": "S. cerevisiae S288C; 0.5 × PDB with supplements, 27 °C, 14 h; MIC = >99% reduction of OD650", "procedure": "as §1, with “These microbial strains were purchased from the American Type Culture Collection (Manassas, VA, USA), National Institute of Technology and Evaluation (Tokyo, Japan), RIKEN BioResource Center (Tsukuba, Japan), Medical Mycology Research Center (Chiba, Japan), and GE Healthcare (Little Chalfont, UK).” left out\nas §2"}, "[4]": {"tested_on": "C. albicans CAI4 cells", "test": "Fungicidal assay (CFU time course)", "assay_type": "cell-based, Candida albicans", "settings": "16 μM (4 × MIC), 30 °C, CFU count, n = 3", "procedure": "C. albicans CAI4 cells (2 × 10^5 cells/ml) were treated with OsAFP1 and incubated at 30 °C for 0, 0.17, 0.5, 1, 2, and 4 h. After being washed three times with KPB, the cells were plated on agar plates (0.5 × PDB). Calculated CFUs in the plate were used as indicators of viable cells. […] Therefore, in the present assay, 4 × MIC concentration was used, because long-term OsAFP1 treatment may produce various undesirable effects other than fungicidal activity and make the assay difficult to interpret. 4 × MIC concentration was also applied in the subsequent annexin V assay and ICC staining analysis."}, "[5]": {"tested_on": "C. albicans CAI4", "test": "Thermal stability (MIC of heat-treated peptide)", "assay_type": "cell-based, Candida albicans", "settings": "peptide heated at 100 °C for 10 min, 0–8 μM, OD650, n = 3", "procedure": "Antifungal assays to determine the MIC of OsAFP1 were performed as follows. Fungal cells (1 × 10^5 cells) were suspended in 100 μl of the appropriate medium containing 0–32 μM OsAFP1 in 96-well Costar cell culture plates. After incubation, OD650 was measured using a plate reader. […] In some measurements, because of aggregation of medium components, it was difficult to determine MIC values. In those cases, the cultures were plated on agar plates (0.5 × PDB), and the peptide concentration at which viable cell numbers were 1% or less than that in the control culture was considered the MIC. GraphPad Prism version 6.00 for Macintosh (GraphPad Software, La Jolla, CA, USA) was used to calculate IC50 values. Experiments were independently repeated at least three times. Detailed growth conditions for each fungus are provided in the “Microorganisms and culture conditions” section above.\nThermal stability of OsAFP1 was evaluated by comparing the MIC of heat-treated (10 min at 100 °C) peptide to the MIC of untreated peptide."}, "[6]": {"tested_on": "C. albicans CAI4 cytoplasmic membrane", "test": "PI uptake assay (flow cytometry)", "assay_type": "cell-based, Candida albicans", "settings": "4 × IC50 (6 μM melittin, 8 μM OsAFP1, 20 or 24 μM peptide 1, 40 μM peptide 7), 30 °C, 3 h, PI 5 μg/ml, PBS control 0.1 %", "procedure": "C. albicans CAI4 cells (2 × 10^5 cells/ml) were treated with OsAFP1, peptide 1, peptide 7, or melittin at 4 × IC50 concentrations (8 μM for OsAFP1, 24 μM for peptide 1, 40 μM for peptide 7, and 6 μM for melittin[52],[53]) and incubated at 30 °C for 3 h. After the addition of PI (5 μg/ml) and incubation at room temperature in the dark for 30 min, the cells were analysed using a flow cytometer equipped with a 488 nm air-cooled argon laser. At least 10,000 events per sample were recorded. As a negative control, PBS was used instead of antifungal agents, and the mixtures were treated in the same way."}, "[7]": {"tested_on": "C. albicans CAI4 cells", "test": "Annexin V assay (apoptosis, epifluorescence microscopy)", "assay_type": "cell-based, Candida albicans", "settings": "16 μM (4 × MIC), 30 °C, 0.5 h; epifluorescence microscope", "procedure": "After being washed three times with KPB, the cells were resuspended in 500 μl of 1 × binding buffer and mixed with 5 μl each of annexin V-FITC and PI reagent (BioVision, Mountain View, CA, USA). The mixtures were incubated at room temperature in the dark for 5 min, and the cells were then observed under a TE2000-S epifluorescence microscope (Nikon, Tokyo, Japan) equipped with an appropriate objective lens [CFI Plan Fluor 100 × oil (Nikon)] and bandpass filters with 542 nm excitation and 620 nm emission for PI and 494 nm excitation and 518 nm emission for FITC."}},
  "note": "Where no end group is shown, it is not given here.",
  "data": [
    {"substance": "OsAFP1: rice defensin (Os02g41904, UniProtKB Q6K209); recombinant mature peptide produced in E. coli, four disulphide bonds (RHCLSQSHRFKGMCVSSNNCANVCRTESFPDGECKSHGLERKCFCKKVC; disulfide (positions not given here); UniProt Q6K209 32-80, looked up)", "values": [
      {"measurement": "MIC", "setting": "[1]; C. albicans CAI4, 1 × 10^5 cells in 100 μl 0.5 × PDB + 25 μg/ml uridine, 30 °C, 14 h, 0–32 μM, MIC = >99% reduction of OD650, repeated at least three times", "result": 4, "unit": "µM"},
      {"measurement": "IC50", "setting": "[1]; read-out: half maximal inhibitory concentration (IC50), C. albicans CAI4 growth, OD650, GraphPad Prism, wild-type OsAFP1 (Fig. 1a)", "result": 2000, "unit": "nM"},
      {"measurement": "MIC", "setting": "[2]", "result": 4, "unit": "µM"},
      {"measurement": "MIC", "setting": "[3]", "result": 16, "unit": "µM"},
      {"measurement": "C. albicans cells died", "setting": "[4]; 30 min", "result": "about 50%"},
      {"measurement": "C. albicans cells died", "setting": "[4]; 4 h", "result": "almost all cells died"},
      {"measurement": "MIC of heat-treated peptide", "setting": "[5]", "result": 8, "unit": "µM"},
      {"measurement": "cells stained with PI", "setting": "[6]", "result": 3.6, "unit": "%"},
      {"measurement": "annexin V-FITC fluorescence (early apoptosis)", "setting": "[7]", "result": "almost all fungal cells emitted fluorescence"}
    ]}
  ]
}
